According to patent US6531117B2, “Aqueous dispersion of water-insoluble organic UV filter substances” (BASF Aktiengesellschaft, priority 2000, dated 2003):

Assay: UV absorption (absorbance coefficient)
Format: physicochemical
Settings: 314 nm
Text: Uvinul® T150 is notable for good UV absorption properties and an extremely high absorbance coefficient of >1500 and 314 nm.

## CCCCC(CC)COC(=O)c1ccc(Nc2nc(Nc3ccc(C(=O)OCC(CC)CCCC)cc3)nc(Nc3ccc(C(=O)OCC(CC)CCCC)cc3)n2)cc1 (stereo not shown) [Uvinul® T150, 2,4,6-trianilino-p-(carbo-2′-ethylhexyl-1′-oxy)-1,3,5-triazine]
  absorbance coefficient: > 1500
